Reference: US20050164994A1, “Treatment of genitourinary tract disorders” (Control Deliver Systems, Inc., priority 2001, published 2005)
Values joined by “and” are separate entries in the source; they are usually repeats but may differ in a detail not shown here. Identical values can stand only once.

Assay: Canine study: codrug remaining in 5 mg pellets implanted in the prostate
Format: in vivo
Conditions: dog prostate, 5 mg implant
Description: A canine study was performed using a codrug of 5-FU and fluocinolone acetonide (Fa) to evaluate the release rate of the codrug in prostate tissue. The results of that study are detailed in FIGS. 1-3. Two 5 mg pellets of the codrug were implanted in the prostate, and the animals were humanely sacrificed on postoperative days, as indicated. The prostates were removed and levels of the codrug in the pellets determined.

CC1(C)O[C@@H]2CC3C4C[C@H](F)C5=CC(=O)C=C[C@]5(C)[C@@]4(F)[C@@H](O)C[C@]3(C)[C@]2(C(=O)COC(=O)CC(=O)n2c(=O)[nH]cc(F)c2=O)O1 (some centres unmarked) [5-FU + FA]
Codrug Remaining (single pellet) (sacrificed at 28 days): 4.27 mg and 4.24 mg and 4.04 mg and 3.50 mg and 4.14 mg and 4.18 mg and 4.12 mg and 4.23 mg | Codrug Remaining (single pellet) (sacrificed at 42 days): 3.50 mg and 3.33 mg and 3.89 mg and 4.12 mg
